Here are results for 14 compounds from ChEMBL document CHEMBL4665775, “Half-life extension of peptidic APJ agonists by N-terminal lipid conjugation” (Bioorg Med Chem Lett, 2020).

One series concerns the target T1, Apelin receptor (Rattus norvegicus, UniProt Q9JHG3).
T1 sequence (Q9JHG3 whole entry): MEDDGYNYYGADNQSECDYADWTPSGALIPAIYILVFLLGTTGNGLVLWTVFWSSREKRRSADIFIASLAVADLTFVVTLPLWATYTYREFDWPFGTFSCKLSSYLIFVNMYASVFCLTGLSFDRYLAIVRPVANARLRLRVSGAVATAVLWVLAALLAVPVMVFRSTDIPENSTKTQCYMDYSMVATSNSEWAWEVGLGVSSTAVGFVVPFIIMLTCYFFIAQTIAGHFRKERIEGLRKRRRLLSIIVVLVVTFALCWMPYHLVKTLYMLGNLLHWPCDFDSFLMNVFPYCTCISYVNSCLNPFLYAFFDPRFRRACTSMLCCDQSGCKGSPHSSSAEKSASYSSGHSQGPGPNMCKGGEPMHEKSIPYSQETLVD
Briefly: Agonist activity at rat APJ receptor stably expressed in CHO cell membranes in presence of [35S]GTPgammaS by scintillation proximity assay. Type of series: functional.

A short description of series [1]: Plasma protein binding in rat assessed as unbound fraction by LC-MS/MS analysis. Type of series: ADME, cell-free.
Series [2] is described as follows: Stability in rat plasma assessed as compound remaining at 4 hrs. Type of series: ADME, cell-free. The conditions noted are these: read-out: Stabilty.
Series [3] is described as follows: Stability in rat Kidney S9 fraction assessed as compound remaining at 4 hrs. As to conditions: read-out: Stabilty. Type of series: ADME, subcellular.

For `CCCCCCCCCCCCCC(=O)N[C@@H](CCC(=O)NCCOCCOCC(=O)NCCOCCOCC(=O)N[C@@H](CCCCNC(=N)N)C(=O)N[C@H](CCCNC(=N)N)C(=O)N[C@@H](CCC(N)=O)C(=O)N[C@@H](CCCCNC(=N)N)C(=O)N1CCC[C@H]1C(=O)N[C@H](CCCNC(=N)N)C(=O)N(C)[C@@H](CC(C)C)C(=O)N[C@@H](CO)C(=O)N[C@@H](Cc1c[nH]cn1)C(=O)N[C@@H](CCCCN)C(=O)NCC(=O)N1[C@H](C(=O)N[C@@H](Cc2ccc(I)cc2)C(=O)N2CCC[C@H]2C(=O)N[C@H](Cc2ccc(-c3ccccc3)cc2)C(=O)O)C[C@@H]2CCCC[C@@H]21)C(=O)O`, on Apelin receptor, the EC50 (in general, the concentration that produces a half-maximal response) worked out at 3.63 nM. In addition, the fraction unbound (as a rule, the share of the substance not bound to proteins or other matrix) in series [1] was found to be 0.0023.

With `CCCCCCCC(=O)N[C@@H](CCC(=O)NCCOCCOCC(=O)NCCOCCOCC(=O)N[C@@H](CCCCNC(=N)N)C(=O)N[C@H](CCCNC(=N)N)C(=O)N[C@@H](CCC(N)=O)C(=O)N[C@@H](CCCCNC(=N)N)C(=O)N1CCC[C@H]1C(=O)N[C@H](CCCNC(=N)N)C(=O)N(C)[C@@H](CC(C)C)C(=O)N[C@@H](CO)C(=O)N[C@@H](Cc1c[nH]cn1)C(=O)N[C@@H](CCCCN)C(=O)NCC(=O)N1[C@H](C(=O)N[C@@H](Cc2ccc(I)cc2)C(=O)N2CCC[C@H]2C(=O)N[C@H](Cc2ccc(-c3ccccc3)cc2)C(=O)O)C[C@@H]2CCCC[C@@H]21)C(=O)O`, the EC50 at Apelin receptor was determined as 3.05 nM. For the same compound, in series [1], the fraction unbound was 0.0027.

Take `CC(=O)N[C@@H](CCC(=O)NCCOCCOCC(=O)NCCOCCOCC(=O)N[C@@H](CCCCNC(=N)N)C(=O)N[C@H](CCCNC(=N)N)C(=O)N[C@@H](CCC(N)=O)C(=O)N[C@@H](CCCCNC(=N)N)C(=O)N1CCC[C@H]1C(=O)N[C@H](CCCNC(=N)N)C(=O)N(C)[C@@H](CC(C)C)C(=O)N[C@@H](CO)C(=O)N[C@@H](Cc1c[nH]cn1)C(=O)N[C@@H](CCCCN)C(=O)NCC(=O)N1[C@H](C(=O)N[C@@H](Cc2ccc(I)cc2)C(=O)N2CCC[C@H]2C(=O)N[C@H](Cc2ccc(-c3ccccc3)cc2)C(=O)O)C[C@@H]2CCCC[C@@H]21)C(=O)O`: the EC50 at Apelin receptor came out at 0.92 nM. The remaining at 4 h in series [2] was over 90%; in series [3] it was 30%. Also, the fraction unbound in series [1] came out at 0.001.

Consider `CCCCCCCCCC(=O)N[C@@H](CCC(=O)NCCOCCOCC(=O)NCCOCCOCC(=O)N[C@@H](CCCCNC(=N)N)C(=O)N[C@H](CCCNC(=N)N)C(=O)N[C@@H](CCC(N)=O)C(=O)N[C@@H](CCCCNC(=N)N)C(=O)N1CCC[C@H]1C(=O)N[C@H](CCCNC(=N)N)C(=O)N(C)[C@@H](CC(C)C)C(=O)N[C@@H](CO)C(=O)N[C@@H](Cc1c[nH]cn1)C(=O)N[C@@H](CCCCN)C(=O)NCC(=O)N1[C@H](C(=O)N[C@@H](Cc2ccc(I)cc2)C(=O)N2CCC[C@H]2C(=O)N[C@H](Cc2ccc(-c3ccccc3)cc2)C(=O)O)C[C@@H]2CCCC[C@@H]21)C(=O)O`, for which the 50% effective concentration (EC50) on Apelin receptor stood at 1.35 nM.

For `CCCCCCCCCCCCCCCCCC(=O)N[C@@H](CCC(=O)NCCOCCOCC(=O)NCCOCCOCC(=O)N[C@@H](CCCCNC(=N)N)C(=O)N[C@H](CCCNC(=N)N)C(=O)N[C@@H](CCC(N)=O)C(=O)N[C@@H](CCCCNC(=N)N)C(=O)N1CCC[C@H]1C(=O)N[C@H](CCCNC(=N)N)C(=O)N(C)[C@@H](CC(C)C)C(=O)N[C@@H](CO)C(=O)N[C@@H](Cc1c[nH]cn1)C(=O)N[C@@H](CCCCN)C(=O)NCC(=O)N1[C@H](C(=O)N[C@@H](Cc2ccc(I)cc2)C(=O)N2CCC[C@H]2C(=O)N[C@H](Cc2ccc(-c3ccccc3)cc2)C(=O)O)C[C@@H]2CCCC[C@@H]21)C(=O)O`, on Apelin receptor, the EC50 came to 3.78 nM.

`CC(C)C[C@@H](C(=O)N[C@@H](CO)C(=O)N[C@@H](Cc1c[nH]cn1)C(=O)N[C@@H](CCCCN)C(=O)NCC(=O)N1[C@H](C(=O)N[C@@H](Cc2ccc(I)cc2)C(=O)N2CCC[C@H]2C(=O)N[C@H](Cc2ccc(-c3ccccc3)cc2)C(=O)O)C[C@@H]2CCCC[C@@H]21)N(C)C(=O)[C@@H](CCCNC(=N)N)NC(=O)[C@@H]1CCCN1C(=O)[C@H](CCCCNC(=N)N)NC(=O)[C@H](CCC(N)=O)NC(=O)[C@@H](CCCNC(=N)N)NC(=O)[C@H](CCCCNC(=N)N)NC(=O)COCCOCCNC(=O)COCCOCCNC(=O)CC[C@H](NC(=O)CCCCCCCCCCC(=O)O)C(=O)O`: the EC50 at Apelin receptor was found to be 9.34 nM.

As for `CCCCCCCCCCCC(=O)N[C@@H](CCC(=O)NCCOCCOCC(=O)NCCOCCOCC(=O)N[C@@H](CCCCNC(=N)N)C(=O)N[C@H](CCCNC(=N)N)C(=O)N[C@@H](CCC(N)=O)C(=O)N[C@@H](CCCCNC(=N)N)C(=O)N1CCC[C@H]1C(=O)N[C@H](CCCNC(=N)N)C(=O)N(C)[C@@H](CC(C)C)C(=O)N[C@@H](CO)C(=O)N[C@@H](Cc1c[nH]cn1)C(=O)N[C@@H](CCCCN)C(=O)NCC(=O)N1[C@H](C(=O)N[C@@H](Cc2ccc(I)cc2)C(=O)N2CCC[C@H]2C(=O)N[C@H](Cc2ccc(-c3ccccc3)cc2)C(=O)O)C[C@@H]2CCCC[C@@H]21)C(=O)O`, the EC50 on Apelin receptor turned out to be 3.56 nM. Further, the fraction unbound in series [1] was determined as 0.0013.

Take `CC(C)C[C@@H](C(=O)N[C@@H](CO)C(=O)N[C@@H](Cc1c[nH]cn1)C(=O)N[C@@H](CCCCN)C(=O)NCC(=O)N1[C@H](C(=O)N[C@@H](Cc2ccc(I)cc2)C(=O)N2CCC[C@H]2C(=O)N[C@H](Cc2ccc(-c3ccccc3)cc2)C(=O)O)C[C@@H]2CCCC[C@@H]21)N(C)C(=O)[C@@H](CCCNC(=N)N)NC(=O)[C@@H]1CCCN1C(=O)[C@H](CCCCNC(=N)N)NC(=O)[C@H](CCC(N)=O)NC(=O)[C@@H](CCCNC(=N)N)NC(=O)[C@H](CCCCNC(=N)N)NC(=O)COCCOCCNC(=O)COCCOCCNC(=O)CC[C@H](NC(=O)CCCCCCCCCCCCCCC(=O)O)C(=O)O`: the EC50 at Apelin receptor stood at 56.1 nM.

As to `CC(C)C[C@@H](C(=O)N[C@@H](CO)C(=O)N[C@@H](Cc1c[nH]cn1)C(=O)N[C@@H](CCCCN)C(=O)NCC(=O)N1[C@H](C(=O)N[C@@H](Cc2ccc(I)cc2)C(=O)N2CCC[C@H]2C(=O)N[C@H](Cc2ccc(-c3ccccc3)cc2)C(=O)O)C[C@@H]2CCCC[C@@H]21)N(C)C(=O)[C@@H](CCCNC(=N)N)NC(=O)[C@@H]1CCCN1C(=O)[C@H](CCCCNC(=N)N)NC(=O)[C@H](CCC(N)=O)NC(=O)[C@@H](CCCNC(=N)N)NC(=O)[C@H](CCCCNC(=N)N)NC(=O)COCCOCCNC(=O)COCCOCCNC(=O)CC[C@H](NC(=O)CCCCCCC(=O)O)C(=O)O`, the EC50 at Apelin receptor is 2.61 nM.

Consider `CCCC(=O)N[C@@H](CCC(=O)NCCOCCOCC(=O)NCCOCCOCC(=O)N[C@@H](CCCCNC(=N)N)C(=O)N[C@H](CCCNC(=N)N)C(=O)N[C@@H](CCC(N)=O)C(=O)N[C@@H](CCCCNC(=N)N)C(=O)N1CCC[C@H]1C(=O)N[C@H](CCCNC(=N)N)C(=O)N(C)[C@@H](CC(C)C)C(=O)N[C@@H](CO)C(=O)N[C@@H](Cc1c[nH]cn1)C(=O)N[C@@H](CCCCN)C(=O)NCC(=O)N1[C@H](C(=O)N[C@@H](Cc2ccc(I)cc2)C(=O)N2CCC[C@H]2C(=O)N[C@H](Cc2ccc(-c3ccccc3)cc2)C(=O)O)C[C@@H]2CCCC[C@@H]21)C(=O)O`, for which, on Apelin receptor, the EC50 worked out at 0.24 nM.

Take `CC(C)C[C@@H](C(=O)N[C@@H](CO)C(=O)N[C@@H](Cc1c[nH]cn1)C(=O)N[C@@H](CCCCN)C(=O)NCC(=O)N1[C@H](C(=O)N[C@@H](Cc2ccc(I)cc2)C(=O)N2CCC[C@H]2C(=O)N[C@H](Cc2ccc(-c3ccccc3)cc2)C(=O)O)C[C@@H]2CCCC[C@@H]21)N(C)C(=O)[C@@H](CCCNC(=N)N)NC(=O)[C@@H]1CCCN1C(=O)[C@H](CCCCNC(=N)N)NC(=O)[C@H](CCC(N)=O)NC(=O)[C@@H](CCCNC(=N)N)NC(=O)[C@H](CCCCNC(=N)N)NC(=O)COCCOCCNC(=O)COCCOCCNC(=O)CC[C@H](NC(=O)CCCCCCCCCCCCC(=O)O)C(=O)O`: the EC50 at Apelin receptor came to 17.8 nM.

With `CCCCCCCCCCCCCCCC(=O)N[C@@H](CCC(=O)NCCOCCOCC(=O)NCCOCCOCC(=O)N[C@@H](CCCCNC(=N)N)C(=O)N[C@H](CCCNC(=N)N)C(=O)N[C@@H](CCC(N)=O)C(=O)N[C@@H](CCCCNC(=N)N)C(=O)N1CCC[C@H]1C(=O)N[C@H](CCCNC(=N)N)C(=O)N(C)[C@@H](CC(C)C)C(=O)N[C@@H](CO)C(=O)N[C@@H](Cc1c[nH]cn1)C(=O)N[C@@H](CCCCN)C(=O)NCC(=O)N1[C@H](C(=O)N[C@@H](Cc2ccc(I)cc2)C(=O)N2CCC[C@H]2C(=O)N[C@H](Cc2ccc(-c3ccccc3)cc2)C(=O)O)C[C@@H]2CCCC[C@@H]21)C(=O)O`, the half-maximal effective concentration (EC50) at Apelin receptor stood at 4.01 nM. Further, in series [1], the fraction unbound came out at 0.0189.

Regarding `CC(C)C[C@@H](C(=O)N[C@@H](CO)C(=O)N[C@@H](Cc1c[nH]cn1)C(=O)N[C@@H](CCCCN)C(=O)NCC(=O)N1[C@H](C(=O)N[C@@H](Cc2ccc(I)cc2)C(=O)N2CCC[C@H]2C(=O)N[C@H](Cc2ccc(-c3ccccc3)cc2)C(=O)O)C[C@@H]2CCCC[C@@H]21)N(C)C(=O)[C@@H](CCCNC(=N)N)NC(=O)[C@@H]1CCCN1C(=O)[C@H](CCCCNC(=N)N)NC(=O)[C@H](CCC(N)=O)NC(=O)[C@@H](CCCNC(=N)N)NC(=O)[C@H](CCCCNC(=N)N)NC(=O)COCCOCCNC(=O)COCCOCCNC(=O)CC[C@H](NC(=O)CCCCCCCCC(=O)O)C(=O)O`, the EC50 on Apelin receptor is 2.89 nM.

In the case of `CC(C)C[C@@H](C(=O)N[C@@H](CO)C(=O)N[C@@H](Cc1c[nH]cn1)C(=O)N[C@@H](CCCCN)C(=O)NCC(=O)N1[C@H](C(=O)N[C@@H](Cc2ccc(I)cc2)C(=O)N2CCC[C@H]2C(=O)N[C@H](Cc2ccc(-c3ccccc3)cc2)C(=O)O)C[C@@H]2CCCC[C@@H]21)N(C)C(=O)[C@@H](CCCNC(=N)N)NC(=O)[C@@H]1CCCN1C(=O)[C@H](CCCCNC(=N)N)NC(=O)[C@H](CCC(N)=O)NC(=O)[C@@H](CCCNC(=N)N)NC(=O)[C@H](CCCCNC(=N)N)NC(=O)COCCOCCNC(=O)COCCOCCNC(=O)CC[C@H](NC(=O)CCC(=O)O)C(=O)O`, the EC50 at Apelin receptor stood at 0.49 nM.
